Experimental data reported in ChEMBL document CHEMBL4325844, “Development of 2-amino-4-phenylthiazole analogues to disrupt myeloid differentiation factor 88 and prevent inflammatory responses in acute lung injury” (Eur J Med Chem, 2019).
Calls of active or inactive are those of the source. No cut-off for these calls is given here.

Tests used:
[1] = test system: Peritoneal macrophage; experiment: Antiinflammatory activity in ICR mouse primary peritoneal macrophages assessed as inhibition of LPS-induced IL-6 production at 20 uM preincubated for 60 mins followed by LPS stimulation and measured after 24 hrs by ELISA relative to control; format: functional
[2] = test system: Peritoneal macrophage; experiment: Antiinflammatory activity in ICR mouse primary peritoneal macrophages assessed as inhibition of LPS-induced TNFalpha production preincubated for 2 hrs followed by LPS stimulation and measured after 22 hrs by ELISA; format: functional, cell-based
[3] = test system: Peritoneal macrophage; experiment: Potency index, ratio of TJ-M2010-5 IC50 to test compound IC50 for inhibition of LPS-induced TNFalpha production in ICR mouse primary peritoneal macrophages; format: functional
[4] = Cytotoxicity against ICR mouse primary peritoneal macrophages assessed as cell viability at 20 uM after 24 hrs by MTT assay relative to control; format: cell-based, Peritoneal macrophage; conditions: read-out: Activity
[5] = Cytotoxicity against rat NRK cells assessed as cell viability at 20 uM after 24 hrs by MTT assay relative to control; format: cell-based; conditions: read-out: Activity
[6] = Cytotoxicity against rat H9c2 cells assessed as cell viability at 20 uM after 24 hrs by MTT assay relative to control; format: cell-based; conditions: read-out: Activity
[7] = target: T1, Myeloid differentiation primary response protein MyD88 (Homo sapiens, UniProt Q99836); experiment: Inhibition of LPS-induced HA-tagged MyD88 (unknown origin) interaction with FLAG-tagged MyD88 (unknown origin) expressed in HEK293 cells at 20 uM after 48 hrs by co-immunoprecipitation method; format: cell-based
[8] = target: Toll-like receptor 4/Ly96 (Mus musculus) (UniProt Q9QUK6+Q9JHF9); experiment: Inhibition of TLR4/MD2 interaction in LPS-induced mouse RAW264.7 at 20 uM measured after 30 mins by co-immunoprecipitation method; format: cell-based
[9] = target: Toll-like receptor 4/MD-2 (Homo sapiens) (UniProt O00206+Q9Y6Y9); experiment: Inhibition of LPS-induced HA/FLAG-tagged TLR4 (unknown origin) interaction with MD2 (unknown origin) expressed in HEK293 cells at 20 uM after 48 hrs by co-immunoprecipitation method; format: cell-based
[10] = target: T1, Myeloid differentiation primary response protein MyD88; experiment: Binding affinity to recombinant human MyD88 TIR domain (157 to 296 residues) expressed in Escherichia coli BL21(DE3) by surface plasmon resonance analysis
[11] = target: T1, Myeloid differentiation primary response protein MyD88; experiment: Potency index, ratio of TJ-M2010-5 Kd to test compound Kd for recombinant human MyD88 TIR domain (157 to 296 residues) expressed in Escherichia coli BL21(DE3)
[12] = target: Toll-like receptor 4 (Homo sapiens) (UniProt O00206); experiment: Binding affinity to recombinant human 10His-tagged TLR4 (24 to 631 residues) by SPR assay
[13] = target: Myeloid differentiation primary response protein MyD88 (Mus musculus) (UniProt P22366); experiment: Inhibition of MyD88 in ICR mouse primary peritoneal macrophages assessed as reduction in LPS-induced JNK phosphorylation at 20 uM preincubated for 30 mins followed by LPS-stimulation and measured after 20 mins by Western blot analysis
[14] = target: Myeloid differentiation primary response protein MyD88 (Mus musculus) (UniProt P22366); experiment: Inhibition of MyD88 in ICR mouse primary peritoneal macrophages assessed as reduction in LPS-induced p38 MAPK phosphorylation at 20 uM preincubated for 30 mins followed by LPS-stimulation and measured after 20 mins by Western blot analysis
[15] = target: Myeloid differentiation primary response protein MyD88 (Mus musculus) (UniProt P22366); experiment: Inhibition of MyD88 in ICR mouse primary peritoneal macrophages assessed as reduction in LPS-induced NFkappaB translocation at 20 uM preincubated for 30 mins followed by LPS-stimulation and measured after 20 mins by immunofluorescence microscopic analysis
[16] = target: Myeloid differentiation primary response protein MyD88 (Mus musculus) (UniProt P22366); experiment: Inhibition of MyD88 in mouse RAW264.7 cells expressing EGFP-fused NFkappaB at 10 uM preincubated for 30 mins followed by LPS-stimulation and measured after 1 hr by fluorescence assay; format: cell-based
[17] = test system: Mus musculus; experiment: Antiinflammatory activity in LPS-induced C57/BL6 mouse model of acute lung injury assessed as reduction in total protein levels in BALF at 10 mg/kg, ip pretreated for 30 mins followed by LPS challenge measured after 6 hrs; format: functional, organism-based
[18] = test system: Mus musculus; experiment: Antiinflammatory activity in LPS-induced C57/BL6 mouse model of acute lung injury assessed as reduction in TNFalpha level in BALF at 10 mg/kg, ip pretreated for 30 mins followed by LPS challenge measured after 6 hrs by ELISA; format: functional, organism-based
[19] = test system: Mus musculus; experiment: Antiinflammatory activity in LPS-induced C57/BL6 mouse model of acute lung injury assessed as reduction in IL6 level in serum at 10 mg/kg, ip pretreated for 30 mins followed by LPS challenge measured after 6 hrs by ELISA; format: functional, organism-based
[20] = test system: Mus musculus; experiment: Antiinflammatory activity in LPS-induced C57/BL6 mouse model of acute lung injury assessed as reduction in TNFalpha level in serum at 10 mg/kg, ip pretreated for 30 mins followed by LPS challenge measured after 6 hrs by ELISA; format: functional, organism-based
[21] = test system: Mus musculus; experiment: Antiinflammatory activity in LPS-induced C57/BL6 mouse model of acute lung injury assessed as reduction in macrophage inflammatory infiltration at 10 mg/kg, ip pretreated for 30 mins followed by LPS challenge measured after 6 hrs by F4/80/hematoxylin staining based microscopic analysis; format: functional, organism-based
[22] = test system: Mus musculus; experiment: Antiinflammatory activity in LPS-induced C57/BL6 mouse model of acute lung injury assessed as reduction in interstitial edema at 10 mg/kg, ip pretreated for 30 mins followed by LPS challenge measured after 6 hrs by hematoxylin and eosin staining based microscopic analysis; format: functional, organism-based
[23] = test system: Mus musculus; experiment: Antiinflammatory activity in LPS-induced C57/BL6 mouse model of acute lung injury assessed as reduction in inflammatory infiltration at 10 mg/kg, ip pretreated for 30 mins followed by LPS challenge measured after 6 hrs by hematoxylin and eosin staining based microscopic analysis; format: functional, organism-based
[24] = test system: Mus musculus; experiment: Antiinflammatory activity in LPS-induced C57/BL6 mouse model of acute lung injury assessed as reduction in thicken alveolar septa at 10 mg/kg, ip pretreated for 30 mins followed by LPS challenge measured after 6 hrs by hematoxylin and eosin staining based microscopic analysis; format: functional, organism-based
[25] = test system: Mus musculus; experiment: Antiinflammatory activity in LPS-induced C57/BL6 mouse model of acute lung injury assessed as reduction in IL6 mRNA expression at 10 mg/kg, ip pretreated for 30 mins followed by LPS challenge measured after 6 hrs by SYBR green dye based RT-qPCR analysis; format: functional, organism-based
[26] = test system: Mus musculus; experiment: Antiinflammatory activity in LPS-induced C57/BL6 mouse model of acute lung injury assessed as reduction in TNFalpha mRNA expression at 10 mg/kg, ip pretreated for 30 mins followed by LPS challenge measured after 6 hrs by SYBR green dye based RT-qPCR analysis; format: functional, organism-based
[27] = test system: Mus musculus; experiment: Antiinflammatory activity in LPS-induced C57/BL6 mouse model of acute lung injury assessed as reduction in IL1beta mRNA expression at 10 mg/kg, ip pretreated for 30 mins followed by LPS challenge measured after 6 hrs by SYBR green dye based RT-qPCR analysis; format: functional, organism-based
[28] = test system: Mus musculus; experiment: Antiinflammatory activity in LPS-induced C57/BL6 mouse model of acute lung injury assessed as reduction in ICAM1 mRNA expression at 10 mg/kg, ip pretreated for 30 mins followed by LPS challenge measured after 6 hrs by SYBR green dye based RT-qPCR analysis; format: functional, organism-based

Chain of Myeloid differentiation primary response protein MyD88 (Mus musculus) (P22366 whole entry, the tested form may be a part): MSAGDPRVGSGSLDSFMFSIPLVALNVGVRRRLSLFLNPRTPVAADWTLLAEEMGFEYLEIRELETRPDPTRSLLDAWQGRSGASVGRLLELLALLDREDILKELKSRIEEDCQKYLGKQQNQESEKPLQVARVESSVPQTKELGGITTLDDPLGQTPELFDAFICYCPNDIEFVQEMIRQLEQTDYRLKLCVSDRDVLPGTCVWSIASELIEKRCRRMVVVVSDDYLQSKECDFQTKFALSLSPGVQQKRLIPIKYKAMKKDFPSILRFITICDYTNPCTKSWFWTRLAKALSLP
T1 sequence (Q99836 whole entry): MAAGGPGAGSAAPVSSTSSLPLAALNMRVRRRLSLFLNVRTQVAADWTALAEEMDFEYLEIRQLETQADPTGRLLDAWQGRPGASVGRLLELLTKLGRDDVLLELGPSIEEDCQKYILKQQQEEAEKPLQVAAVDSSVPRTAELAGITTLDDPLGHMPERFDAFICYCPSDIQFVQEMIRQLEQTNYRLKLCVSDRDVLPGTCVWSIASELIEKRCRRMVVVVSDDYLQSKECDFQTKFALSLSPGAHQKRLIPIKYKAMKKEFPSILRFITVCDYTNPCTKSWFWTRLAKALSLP
Chain of Toll-like receptor 4 (Homo sapiens) (O00206 whole entry, the tested form may be a part): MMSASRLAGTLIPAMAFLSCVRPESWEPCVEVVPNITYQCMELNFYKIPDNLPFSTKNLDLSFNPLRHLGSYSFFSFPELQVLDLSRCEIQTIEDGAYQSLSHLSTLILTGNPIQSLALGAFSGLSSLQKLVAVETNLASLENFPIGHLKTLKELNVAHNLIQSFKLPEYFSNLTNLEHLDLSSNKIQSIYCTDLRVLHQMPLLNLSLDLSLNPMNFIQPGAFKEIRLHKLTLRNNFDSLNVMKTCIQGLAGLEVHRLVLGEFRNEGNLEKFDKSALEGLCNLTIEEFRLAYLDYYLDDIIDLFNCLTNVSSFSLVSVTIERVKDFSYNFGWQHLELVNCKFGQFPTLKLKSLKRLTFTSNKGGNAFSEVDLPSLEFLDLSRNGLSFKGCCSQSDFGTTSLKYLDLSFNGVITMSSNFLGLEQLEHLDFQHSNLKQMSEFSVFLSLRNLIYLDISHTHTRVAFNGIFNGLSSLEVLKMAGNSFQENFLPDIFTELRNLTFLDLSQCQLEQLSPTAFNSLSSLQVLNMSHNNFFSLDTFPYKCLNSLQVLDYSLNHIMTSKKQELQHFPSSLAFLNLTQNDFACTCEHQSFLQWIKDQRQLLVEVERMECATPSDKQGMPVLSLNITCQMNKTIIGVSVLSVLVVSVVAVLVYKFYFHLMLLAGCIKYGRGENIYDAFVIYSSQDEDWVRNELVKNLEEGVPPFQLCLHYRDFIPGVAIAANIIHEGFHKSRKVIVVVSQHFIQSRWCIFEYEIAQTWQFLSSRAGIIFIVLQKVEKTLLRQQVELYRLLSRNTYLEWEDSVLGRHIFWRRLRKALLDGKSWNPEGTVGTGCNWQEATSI

IC50 [2]: 0.89 µM | inhibition [7]: Active | inhibition [8]: inactive | inhibition [9]: inactive | Activity [10]: Dose-dependent effect | Ka [10]: 4830 M⁻¹ s⁻¹ | Kd [10]: 34.5 µM | Kdiss [10]: 0.167 s⁻¹ | Ratio [11]: 5 | Activity [12]: inactive | inhibition [13]: Active | inhibition [14]: Active | inhibition [15]: Active | inhibition [16]: Active
Compound: COc1cc(-c2csc(NC(=O)CCN3CCN(Cc4cccc([N+](=O)[O-])c4)CC3)n2)ccc1O
inhibition at 20 µM [1]: 95% | inhibition [2]: Dose-dependent effect | Ratio IC50 [3]: 13 | viability at 24 h, 20 µM [4]: > 80% | viability at 24 h, 20 µM [5]: > 80% | viability at 24 h, 20 µM [6]: > 80% | Activity [17]: Active | Activity [18]: Active | Activity [19]: Active | Activity [20]: Active | Activity [21]: Active | Activity [22]: Active | Activity [23]: Active | Activity [24]: Active | Activity [25]: Active | Activity [26]: Active | Activity [27]: Active | Activity [28]: Active
